Results: PubChem BioAssay AID2060357 (Molecular Pharmacology Branch, DTP, NCI, 2025)

System: 292921-168-R-J2-PDC spheroids with HUVEC/MSC, viability
Test: Anticancer human tumor 292921-168-R-J2-PDC patient-derived pancreatic carcinoma cell line growth inhibition [TAK]
Conditions: for IC50: curve of first compound; for viability, T/C: stronger effect = lower value
Source text: Combinatorial screen of targeted agents with TAK-243 and ipatasertib in multi-cell type tumor spheroids
A high-throughput screen of multi-cell type tumor spheroids was designed to identify active combinations of targeted small molecules and TAK-243 or ipatasertib. Complex spheroids include a stromal component modeled by human endothelial cells (HUVEC) and fibroblasts modeled by human mesenchymal stem cells (MSCs). The concentration ranges selected for each drug and investigational agent were based upon clinically achievable concentrations if the clinical Cmax of the agent was known.
Compounds. The drugs and investigational agents: TAK-243 (785004), ipatasertib (767898), everolimus (733504), selumetinib (741078), bortezomib (756655), trametinib (758246), ixazomib (758254), vemurafenib (761431), dabrafenib (764134), sapanisertib (764658), alpelisib (765974), and copanlisib (816437), were obtained from the National Cancer Institute (NCI) Developmental Therapeutics Program Chemical Repository. The FDA-approved anticancer drug set is available from the NCI Developmental Therapeutics Program. […] The stock solutions were prepared in dimethyl sulfoxide (DMSO, Sigma-Aldrich, St. Louis, MO, cat. D2650) at 800-fold the tested concentration and stored at -70 degrees C prior to their use. All drugs and investigational agents were tested over a range starting from a high concentration at or near the clinical Cmax and decreasing in half-log increments. If the clinical Cmax for an agent had not been determined, the highest concentration tested was 10 microM.
NCI60 Cell Culture. NCI60 cell lines were obtained from the NCI Developmental Therapeutics Program Tumor Repository. For each lot of cells, the Repository performed Applied Biosystems AmpFLSTR Identifiler testing with PCR amplification to confirm consistency with the published Identifier STR profile for each cell line. Cells were kept in continuous culture for no more than 20 passages. The optimal seeding densities for each of the cell lines at each time point assessed were determined prior to performing the concentration response studies. Briefly, the NCI60 human tumor lines were grown as monolayers in RPMI 1640 medium supplemented with 10% FBS and 2 mmol/L L-glutamine.
An additional 2 lines were from the NCI60 cell line panel including melanomas, MALME-3M and SK-MEL-2. Pooled donor human umbilical vein endothelial cells (HUVEC, Lonza, cat. CC-2519) and human mesenchymal stem cells (hMSC, Lonza, cat. PT-2501) were purchased from Lonza (Walkersville, MD).
PDMR cell lines were grown in complete medium (DC medium): Dulbecco's modified Eagle's medium (DMEM)/F12 supplemented with 5% fetal bovine serum (FBS), 2 mM L-glutamine, 100 U/mL penicillin and 100 µg/ml streptomycin, 0.4 µg/ml hydrocortisone, 10 ng/ml epidermal growth factor (EGF) recombinant human protein, 24 µg/mL adenine, and 0.1 mg/mL primocin. During culture from frozen stock vials, PDMR cells were cultured in the same medium containing 10 µM Y-27632 (see Table 3). The PDCs were cultured in complete DMEM/F12 media without 10 microM Y-27632 dihydrochloride for at least two passages prior to the screen. The pooled donor HUVEC and hMSC were cultured in endothelial cell growth medium 2 (PromoCell, Heidelberg, Germany, cat. C-22011) and mesenchymal stem cell growth medium 2 (PromoCell, cat. C-28009), respectively. For all experiments, HUVEC and hMSC were used at passages </=5.
For the pre-screen, cell seeding densities were determined from a titration spanning the range from 5,000 to 313 cells per well. The mct-spheroids including 60% malignant cells, 25% HUVEC and 15% MSC dispensed as a mixture into U-bottom Ultra-Low Attachment 384-well plates (Corning, NY)
High-throughput Drug Combination Screening.
Prior to their inoculation into 384-well plates, malignant cells, HUVEC, and hMSC were removed from T flasks using TrypLE express (Thermo Fisher Scientific, cat. 12605036) and harvested by centrifugation for 5 min at 233 x g. […]
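Note: spheroids exposed to drugs for seven days before readout.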

CC(=O)Nc1cccc(-n2c(=O)n(C3CC3)c(=O)c3c(Nc4ccc(I)cc4F)n(C)c(=O)c(C)c32)c1 + CC(C)NCC(C(=O)N1CCN(c2ncnc3c2C(C)CC3O)CC1)c1ccc(Cl)cc1
IC50 (second compound 0.3 µM): 0.45 nM
IC50 (second compound 0.949 µM): 0.337 nM
IC50 (second compound 3 µM): 0.209 nM
IC50 (second compound 9.49 µM): 0.11 nM
IC50 (second compound 30 µM): < 0.0949 nM
viability, T/C (second compound 0.3 µM, first compound 94.9 pM): 74.9%
viability, T/C (second compound 0.3 µM, first compound 0.0003 µM): 59.5%
viability, T/C (second compound 0.3 µM, first compound 0.000949 µM): 32.6%
viability, T/C (second compound 0.3 µM, first compound 0.003 µM): 25.7%
viability, T/C (second compound 0.3 µM, first compound 0.00949 µM): 19.8%
viability, T/C (second compound 0.3 µM, first compound 0.03 µM): 13.9%
viability, T/C (second compound 0.949 µM, first compound 94.9 pM): 70.5%
viability, T/C (second compound 0.949 µM, first compound 0.0003 µM): 51.8%
viability, T/C (second compound 0.949 µM, first compound 0.000949 µM): 35.6%
viability, T/C (second compound 0.949 µM, first compound 0.003 µM): 26.6%
viability, T/C (second compound 0.949 µM, first compound 0.00949 µM): 17.8%
viability, T/C (second compound 0.949 µM, first compound 0.03 µM): 13.1%
viability, T/C (second compound 3 µM, first compound 94.9 pM): 63.8%
viability, T/C (second compound 3 µM, first compound 0.0003 µM): 44%
viability, T/C (second compound 3 µM, first compound 0.000949 µM): 28.8%
viability, T/C (second compound 3 µM, first compound 0.003 µM): 22.5%
viability, T/C (second compound 3 µM, first compound 0.00949 µM): 16.6%
viability, T/C (second compound 3 µM, first compound 0.03 µM): 12.3%
viability, T/C (second compound 9.49 µM, first compound 94.9 pM): 51.4%
viability, T/C (second compound 9.49 µM, first compound 0.0003 µM): 39%
viability, T/C (second compound 9.49 µM, first compound 0.000949 µM): 25.4%
viability, T/C (second compound 9.49 µM, first compound 0.003 µM): 18.8%
viability, T/C (second compound 9.49 µM, first compound 0.00949 µM): 14.3%
viability, T/C (second compound 9.49 µM, first compound 0.03 µM): 10.7%
viability, T/C (second compound 30 µM, first compound 94.9 pM): 34.9%
viability, T/C (second compound 30 µM, first compound 0.0003 µM): 26.6%
viability, T/C (second compound 30 µM, first compound 0.000949 µM): 20.3%
viability, T/C (second compound 30 µM, first compound 0.003 µM): 16%
viability, T/C (second compound 30 µM, first compound 0.00949 µM): 12.2%
viability, T/C (second compound 30 µM, first compound 0.03 µM): 9.91%

CC(C)CC(NC(=O)CNC(=O)c1cc(Cl)ccc1Cl)B1OC(=O)CC(CC(=O)O)(C(=O)O)O1 (stereo not given) + CC(C)NCC(C(=O)N1CCN(c2ncnc3c2C(C)CC3O)CC1)c1ccc(Cl)cc1
IC50 (second compound 0.3 µM): 27.6 nM
IC50 (second compound 0.949 µM): 23.9 nM
IC50 (second compound 3 µM): 23.7 nM
IC50 (second compound 9.49 µM): 17.9 nM
IC50 (second compound 30 µM): < 0.316 nM
viability, T/C (second compound 0.3 µM, first compound 0.000316 µM): 91.7%
viability, T/C (second compound 0.3 µM, first compound 0.001 µM): 86.2%
viability, T/C (second compound 0.3 µM, first compound 0.00316 µM): 88.8%
viability, T/C (second compound 0.3 µM, first compound 0.01 µM): 86.2%
viability, T/C (second compound 0.3 µM, first compound 0.0316 µM): 45.2%
viability, T/C (second compound 0.3 µM, first compound 0.1 µM): 10.8%
viability, T/C (second compound 0.949 µM, first compound 0.000316 µM): 84.6%
viability, T/C (second compound 0.949 µM, first compound 0.001 µM): 85.8%
viability, T/C (second compound 0.949 µM, first compound 0.00316 µM): 85.2%
viability, T/C (second compound 0.949 µM, first compound 0.01 µM): 85.5%
viability, T/C (second compound 0.949 µM, first compound 0.0316 µM): 38.8%
viability, T/C (second compound 0.949 µM, first compound 0.1 µM): 11%
viability, T/C (second compound 3 µM, first compound 0.000316 µM): 75.8%
viability, T/C (second compound 3 µM, first compound 0.001 µM): 80.2%
viability, T/C (second compound 3 µM, first compound 0.00316 µM): 73.3%
viability, T/C (second compound 3 µM, first compound 0.01 µM): 80.2%
viability, T/C (second compound 3 µM, first compound 0.0316 µM): 40.9%
viability, T/C (second compound 3 µM, first compound 0.1 µM): 9.38%
viability, T/C (second compound 9.49 µM, first compound 0.000316 µM): 62%
viability, T/C (second compound 9.49 µM, first compound 0.001 µM): 60.3%
viability, T/C (second compound 9.49 µM, first compound 0.00316 µM): 60.4%
viability, T/C (second compound 9.49 µM, first compound 0.01 µM): 68.2%
viability, T/C (second compound 9.49 µM, first compound 0.0316 µM): 37.6%
viability, T/C (second compound 9.49 µM, first compound 0.1 µM): 6.83%
viability, T/C (second compound 30 µM, first compound 0.000316 µM): 41.4%
viability, T/C (second compound 30 µM, first compound 0.001 µM): 41.2%
viability, T/C (second compound 30 µM, first compound 0.00316 µM): 42.4%
viability, T/C (second compound 30 µM, first compound 0.01 µM): 44.2%
viability, T/C (second compound 30 µM, first compound 0.0316 µM): 31.8%
viability, T/C (second compound 30 µM, first compound 0.1 µM): 7.05%
